Experimental data as given in patent US5955572A, “Structural mimics of RGD-binding sites” (La Jolla Cancer Research Foundation, priority 1998, dated 1999).
Where a SMILES comes first, the peptide text is derived from it. Bridges are numbered along the chain shown (N, C = ends).

Biological target: T1, β3 (109-133) peptide (Homo sapiens, UniProt P05106)
T1 construct: made in house; host or cells: chemical synthesis
T1 sequence (P05106 135-159 limits assumed): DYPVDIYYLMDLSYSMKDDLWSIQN
Assay: RGD-phage binding to peptides from the β3 integrin subunit
Details: titration experiments (not shown); read-out: concentration giving 50% inhibition of RGD-binding to β3 (109-133)

IC50: ~1 µM
SMILES: CC(C)C[C@@H]1NC(=O)[C@H](Cc2c[nH]c3ccccc23)NC(=O)CNC(=O)[C@H](CC(=O)O)NC(=O)[C@H](CC(=O)O)NC(=O)[C@H](Cc2c[nH]c3ccccc23)NC(=O)[C@@H](N)CSSC[C@@H](C(=O)O)NC1=O (H-CWDDGWLC-OH; disulfide 1-8)
